pIC50: −log10 of the molar value. The source made the active and inactive calls. No cut-off for these calls is given here.
Columns and labels:
[1] = biological target: RAC-alpha serine/threonine-protein kinase (Homo sapiens) (UniProt P31749); assay: Increase in Akt phosphorylation in human HL60 cells at 4 uM after 48 hrs; type: cell-based; conditions: HL-60
HL-60 [2] = assay: Cytotoxicity against human HL60 cells; type: functional, cell-based
HL-60 [3] = assay: Effect on caspase 8 activity in human HL60 cells at 4 uM; type: functional, cell-based
HL-60 [4] = assay: Induction of nuclear condensation in human HL60 cells at 4 uM after 24 hrs by Hoechst33342 staining method; type: functional, cell-based
HL-60 [5] = assay: Induction of autophagy in human HL60 cells at 4 uM in presence of PI3K inhibitor 3-methyladenine; type: functional, cell-based
HL-60 [6] = assay: Induction of apoptosis in human HL60 cells assessed as decrease in Bax levels at 4 uM after 12 hrs; type: functional, cell-based
HL-60 [7] = assay: Induction of apoptosis in human HL60 cells at 4 uM in presence of 100 uM caspase inhibitor ZVADFMK by Trypan blue exclusion test; type: functional, cell-based
HL-60 [8] = assay: Induction of apoptosis in human HL60 cells assessed as increase in phospho-Bcl2 at 4 uM after 12 hrs; type: functional, cell-based
HL-60 [9] = assay: Induction of autophagy in human HL60 cells at 4 uM in presence of PI3K inhibitor LY-294002; type: functional, cell-based
HL-60 [10] = assay: Disruption of mitochondrial membrane potential in human HL60 cells at 4 uM after 12 hrs; type: functional, cell-based
HL-60 [11] = assay: Effect on caspase 3 activity in human HL60 cells at 4 uM; type: functional, cell-based
HL-60 [12] = assay: Induction of cell death in human HL60 cells assessed as formation of autophagosomes at 4 uM after 6 hrs; type: functional, cell-based
HL-60 [13] = assay: Increase in p38 MAPK protein level in human HL60 cells at 4 uM by Western blot; type: functional, cell-based
HL-60 [14] = assay: Induction of apoptosis in human HL60 cells assessed as increase in phospho-Bcl-xl levels at 4 uM after 12 hrs; type: functional, cell-based
HL-60 [15] = assay: Induction of DNA fragmentation in human HL60 cells at 4 uM; type: functional, cell-based; conditions: TDE = time-dependent effect
HL-60 [16] = assay: Induction of autophagy in human HL60 cells at 4 uM after 12 hrs by MDC staining; type: functional, cell-based
HL-60 [17] = assay: Increase in intracellular ROS level in human HL60 cells at 4 uM after 12 hrs; type: functional, cell-based
HL-60 [18] = assay: Induction of autophagy in human HL60 cells assessed as increase in lipidated microtubule-associated-protein light chain 3 subunit II levels at 4 uM after 3 to 6 hrs; type: functional, cell-based
HL-60 [19] = assay: Effect on caspase 9 activity in human HL60 cells at 4 uM; type: functional, cell-based
HL-60 [20] = assay: Effect on caspase 2 activity in human HL60 cells at 4 uM; type: functional, cell-based
HL-60 [21] = assay: Induction of apoptosis in human HL60 cells assessed as increase in phospho-Bad levels at 4 uM after 12 hrs; type: functional, cell-based
HL-60 [22] = assay: Increase in JNK protein level in human HL60 cells at 4 uM by Western blot; type: functional, cell-based

Sequence of RAC-alpha serine/threonine-protein kinase (Homo sapiens) (P31749 whole entry): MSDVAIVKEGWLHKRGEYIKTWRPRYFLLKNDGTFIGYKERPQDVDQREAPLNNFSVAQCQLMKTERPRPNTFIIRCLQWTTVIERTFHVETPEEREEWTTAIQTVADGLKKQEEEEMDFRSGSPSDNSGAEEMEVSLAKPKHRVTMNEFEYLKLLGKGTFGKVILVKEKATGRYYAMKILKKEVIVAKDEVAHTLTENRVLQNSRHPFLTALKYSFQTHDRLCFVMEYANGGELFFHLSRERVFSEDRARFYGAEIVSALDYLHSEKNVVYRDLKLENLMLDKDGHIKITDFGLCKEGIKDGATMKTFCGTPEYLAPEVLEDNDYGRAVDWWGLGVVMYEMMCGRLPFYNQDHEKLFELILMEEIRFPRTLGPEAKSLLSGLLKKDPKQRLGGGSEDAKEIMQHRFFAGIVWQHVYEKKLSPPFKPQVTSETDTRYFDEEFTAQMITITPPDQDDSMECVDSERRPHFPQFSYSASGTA

Activity [1]: Active
SMILES: C=C1C(=O)O[C@@H]2/C=C(/C)[C@@H](OC(C)=O)C[C@H]3O[C@]3(C)C[C@@H](OC(=O)/C(=C/C)CO)[C@@H]12 [EUPALININ A]
pIC50 (HL-60 [2]): 5.62 | Activity (HL-60 [3]): Active | Activity (HL-60 [4]): Active | Activity (HL-60 [5]): Active | Activity (HL-60 [6]): Active | Activity (HL-60 [7]): inactive | Activity (HL-60 [8]): Active | Activity (HL-60 [9]): Active | Activity (HL-60 [10]): Active | Activity (HL-60 [11]): Active | Activity (HL-60 [12]): Active | Activity (HL-60 [13]): Active | Activity (HL-60 [14]): Active | Activity (HL-60 [15]): tde | Activity (HL-60 [16]): Active | Activity (HL-60 [17]): Active | Activity (HL-60 [18]): Active | Activity (HL-60 [19]): Active | Activity (HL-60 [20]): Active | Activity (HL-60 [21]): Active | Activity (HL-60 [22]): Active
